Measured values from PubChem BioAssay (NCI).
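Interpolation was linear, between the two tested concentrations surrounding the appropriate level; five concentrations were tested over 48 hours in 96-well plates. GI50 marks 50% less growth. Definition used: TGI = concentration required for complete inhibition of growth.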

Tests used:
Test in all cases: inhibition of tumour cell growth, NCI panel, 48 h
NCI-H226 lung = system: NCI-H226 lung
ACHN renal = system: ACHN renal
UO-31 renal = system: UO-31 renal
NCI-H23 lung = system: NCI-H23 lung
OVCAR-4 ovarian = system: OVCAR-4 ovarian
SK-MEL-28 melanoma = system: SK-MEL-28 melanoma
KM12 colon = system: KM12 colon
DU-145 prostate = system: DU-145 prostate
A549 NSCLC = system: A549 NSCLC
MCF7 breast = system: MCF7 breast

| Structure (SMILES) | TGI (NCI-H226 lung) [µM] | TGI (ACHN renal) [µM] | TGI (UO-31 renal) [µM] | TGI (NCI-H23 lung) [µM] | TGI (OVCAR-4 ovarian) [µM] | TGI (SK-MEL-28 melanoma) [µM] | TGI (KM12 colon) [µM] | TGI (DU-145 prostate) [µM] | TGI (A549 NSCLC) [µM] | TGI (MCF7 breast) [µM] | GI50 (NCI-H226 lung) [µM] | GI50 (ACHN renal) [µM] | GI50 (UO-31 renal) [µM] | GI50 (NCI-H23 lung) [µM] | GI50 (OVCAR-4 ovarian) [µM] | GI50 (SK-MEL-28 melanoma) [µM] | GI50 (KM12 colon) [µM] | GI50 (DU-145 prostate) [µM] | GI50 (A549 NSCLC) [µM] | GI50 (MCF7 breast) [µM] |
| --- | --- | --- | --- | --- | --- | --- | --- | --- | --- | --- | --- | --- | --- | --- | --- | --- | --- | --- | --- | --- |
| O=C(O)CNCc1c2ccccc2nc2ccccc12 | > 100 | > 100 | > 91.5 | > 100 | > 89.8 | > 100 | > 100 | > 100 | > 100 | > 100 |  |  |  |  |  |  |  |  |  |  |
| COc1cc2cc(Oc3ccc(NC(=O)Nc4cc(C(F)(F)F)cc(C(F)(F)F)c4)cc3)c(C)nc2cc1OCCN1CCCCC1 | 3.96 | 2.99 | 2.55 | 3.32 | 3.61 | 3.07 | 3.47 | 3.08 | 3.62 | 3.43 | 1.7 | 1.63 | 1.28 | 1.75 | 1.89 | 1.66 | 1.91 | 1.71 | 1.8 | 1.68 |
| Cc1cccc(Cc2cnc(NC(=O)/C=C/c3ccco3)s2)c1 | > 23.1 | > 100 | > 100 | > 100 | > 100 | > 100 | > 100 | > 100 | > 100 | > 100 | 0.797 | 0.0645 | 0.0847 | 0.108 | 1.59 | > 100 | 0.039 | 0.0382 | 0.0591 | 0.0331 |
| O=C(Nc1ccc(I)cc1F)c1cc(F)ccc1O | 5.66 | > 100 | 1.34 | 4.04 | 17.2 | 1.91 | 6.23 | > 100 | > 100 | > 25.3 | 0.985 | 0.466 | 0.236 | 0.379 | 0.396 | 0.353 | 2.21 | 0.655 | 2.24 | 1.48 |
| CC(=O)O[C@H]1Cc2c([nH]c3ccccc23)[C@@H](c2ccc(Cl)cc2)N1C(=O)CCNC(C)(C)C | 7.15 | 8.29 | 6.08 | 10.5 | 7.14 | 9.04 | 9.51 | 8.45 | 10.1 | 7.74 | 2.11 | 4.13 | 1.45 | 5.12 | 3.06 | 4.65 | 4.33 | 4.01 | 5.19 | 3.25 |
| O=C1c2ccccc2-c2c1c1ccccc1c(=O)n2CCCNCCO | 5.38 | 0.906 | 2.06 | 4.97 | 5.95 | 2.95 | 4 | 4.72 | 12.8 | 5.03 | 1.45 | 0.195 | 0.303 | 0.818 | 1.24 | 1.24 | 0.485 | 0.189 | 0.267 | 0.102 |
| COC(=O)C1=C(C)NC(C)=C(C(=O)OC)C1c1ccccc1[N+](=O)[O-] | > 100 | > 100 | > 100 | > 100 | > 100 | > 100 | > 100 | > 100 | > 100 | > 100 | 87.6 | 76.9 | 50 | > 100 | 61.9 | > 100 | > 100 | > 100 | > 100 | > 100 |
| CCN(CC)Cc1cc(Nc2c3ccc(Cl)cc3nc3c(C)cccc23)ccc1O | 3.51 | 2.24 | 2.27 | 3.22 | 2.97 | 3.22 | 3.46 | 6.99 | 4.64 | 2.32 | 1.71 | 1.04 | 1.06 | 1.65 | 1.53 | 1.78 | 1.59 | 2.3 | 1.64 | 1 |
| Cn1cc(C2=C(c3cccc(Cl)c3)C(=O)NC2=O)c2ccccc21 | > 25 | > 25 | > 25 | > 25 | > 25 | > 25 | > 25 | > 25 | > 25 | > 25 | > 20.6 | > 25 | 8.3 | > 25 | > 22.6 | > 17.5 | > 25 | > 25 | > 25 | > 25 |
| CCOC(=O)Nc1ccc2nc(Sc3ccc(Cl)cc3)sc2c1 | 76.3 | > 90.4 | 79.4 | > 100 | > 100 | > 100 | > 58.8 | > 48.5 | > 100 | > 58.7 | 7.9 | 11.5 | 9.57 | 10.2 | 20.7 | 13.5 | 0.684 | 4.33 | 6.3 | 1.66 |
| Cc1cncc2cccc(S(=O)(=O)N3CCCNC[C@@H]3C)c12 | 46.1 | > 100 | 23.8 | > 100 | > 100 | > 100 | > 100 | > 100 | > 100 | > 100 | 2 | 14.2 | 2.16 | 31.5 | > 100 | > 100 | 15.2 | 36.1 | 14.6 | 11.5 |
| Clc1cc(-c2csc(Cl)c2)cs1 | > 100 | > 100 | > 100 | > 100 | > 100 | > 100 | > 100 | > 100 | > 100 | > 100 |  |  |  |  |  |  |  |  |  |  |
| C/C(=C\COc1ccc2ccc(=O)oc2c1)CCC(=O)C(C)(C)O | 69.7 | > 100 | 91.9 | > 100 | > 100 | > 100 | 41 | > 100 | > 100 | 40.6 |  |  |  |  |  |  |  |  |  |  |
| S=C1NC2=C(CCOc3c2ccc2ccccc32)C(c2ccc(Cl)cc2)N1 (stereo not given) | 49.5 | > 100 | > 100 | 92 | > 100 | > 100 | > 100 | > 100 | > 100 | > 100 | 17 | 36.4 | 46.2 | 18.2 | > 100 | 41.1 | 47.5 | 27.9 | 45.1 | 16.2 |
| c1ccc2c(Nc3ccc4c(c3)OCO4)c3ccoc3nc2c1 | > 100 | 70.3 | > 100 | 27.3 | > 100 | 58.6 | 35.2 | 31.2 | 35.8 | > 100 | 25.5 | 20.2 | 23.6 | 10.9 | 29.4 | 19.2 | 14.2 | 14 | 6.96 | 12.6 |
